In US6503449B1, “Process for the control of microbial contamination in water-based solids suspensions” (Ciba Specialty Chemicals Corporation, priority 1998, dated 2003) one finds bacterial contamination data, which are given here for one molecule.

This experiment concerns mixture of Gram positive and Gram negative bacteria. As to the kind of experiment: Sonication of Pigment Red 23 dispersion of Example 2 with biocide, bacterial contamination check. Further details: key: −: no bacterial colonies detected; +: light contamination (10^0 and 10^3 cfu/ml); ++: moderate contamination(10^3-10^5 cfu/ml); +++: heavy contamination(>10^5 cfu/ml). Type of experiment: cell-based. The source says:
A mixture of Pigment Red 23, available from Ciba Specialty Chemicals(UK) Ltd., 215.5 parts, Emulan OG (RTM) (35% solution in water), available from BASF, 153.7 parts, tributyl phosphate, available from Albright & Wilson, 2 parts, and water, 128.8 parts, are dispersed by re-circulation through a Bachofen KDL200 bead-mill until colouristic properties are within specification of UNISPERSE (RTM) Red RBS-PI, available from Ciba Specialty Chemicals(UK) Ltd., and adjusted to pH 8.0-8.5 with 20% sodium hydroxide solution. This material is identified as containing the Gram negative bacterium, Pseudomonas putida. 50 millilitre aliquots of this dispersion containing levels of glutaraldehyde (pentane-1,5-dialdehyde), available as the trade product Protectol GDA form BASF or Ucarcide from Union Carbide, between 0 parts per million (ppm) and 2000 ppm are sonicated using a Branson MSE sonicator with a 19 mm horn probe resonating at 20 kHz with an amplitude of 6 microns. Sonication is undertaken in a 100 millilitre glass beaker, diameter 38 mm, with magnetic flea agitator and cooled in a water/ice bath to maintain temperature at 28-32° C. Bacterial growth in each sample is assessed at 5 minute intervals by streaking each dispersion on to Nutrient Agar(NA) plates and incubating the plates for a minimum of 48 hours at 30° C. The plates are then examined for bacterial colonies and expressed according to the following notation:
A mixture of Pigment Red 23,215.5 parts, Emulan OG (RTM) (35% solution in water), 153.7 parts, tributyl phosphate, 2 parts, and water, 128.8 parts are dispersed by re-circulation through a Bachofen KDL200 bead-mill until colouristic properties are within specification of UNISPERSE (RTM) Red RBS-PI as detailed in Example 1 and adjusted to pH 8.0-8.5 with 20% sodium hydroxide solution. This material is identified as having a bacterial count of 4.8×10^6 colony-forming units (cfu) per millilitre comprised of a mixture of Gram positive and Gram negative bacteria. It is treated with 250 parts per million(ppm) of pentane 1,5-dialdehyde and pumped through a 2406 Nearfield Accoustical Processor sonicating at 16 kHz and 20 kHz respectively with a plate separation of 6 mm (approximately) at a flow rate of 750 kg/hr. Assessment bacterial activity is then done by spreading a sample of the pigment dispersion on Nutrient Agar(NA) plates and incubating at 30° C. for 48 hours. […] The temperature rise is 1° C. per pass, from a starting value of 20° C.
The solids dispersion as defined in Example 2, containing the mixture of Gram positive and Gram negative bacteria, is treated separately with 200 ppm and 500 ppm of pentane-1,5-dialdeyde (Ucarcide 250 (RTM)), and with 200 ppm and 500 ppm of CIT/MIT mixture (Acticide LG (RTM)) and each sonicated for a period of 30 minutes according to the process defined in Example 1. Each sample is then checked for bacterial contamination over following 28 days.

For the molecule `O=CCCCC=O` [glutaraldehyde, pentane-1,5-dialdehyde], the bacterial contamination entry is “−” (Ucarcide 250 200 ppm, 1 days after sonication); “−” (Ucarcide 250 200 ppm, 2 days after sonication); “−” (Ucarcide 250 200 ppm, 7 days after sonication); “−” (Ucarcide 250 200 ppm, 14 days after sonication); “−” (Ucarcide 250 200 ppm, 28 days after sonication); “+++ (heavy contamination(>10^5 cfu/ml))” (Ucarcide 250 200 ppm, sonicated 0 mins.). The bacterial contamination entry is “++ (moderate contamination(10^3-10^5 cfu/ml))” (Ucarcide 250 200 ppm, sonicated 5 mins.); “−” (Ucarcide 250 200 ppm, sonicated 10 mins.); “−” (Ucarcide 250 200 ppm, sonicated 15 mins.); “−” (Ucarcide 250 200 ppm, sonicated 20 mins.); “−” (Ucarcide 250 200 ppm, sonicated 25 mins.); “−” (Ucarcide 250 200 ppm, sonicated 30 mins.). Also, the bacterial contamination entry by setting is: (Ucarcide 250 500 ppm, 1 days after sonication) “−”; (Ucarcide 250 500 ppm, 2 days after sonication) “−”; (Ucarcide 250 500 ppm, 7 days after sonication) “−”; (Ucarcide 250 500 ppm, 14 days after sonication) “−”; (Ucarcide 250 500 ppm, 28 days after sonication) “−”; (Ucarcide 250 500 ppm, sonicated 0 mins.) “+++ (heavy contamination(>10^5 cfu/ml))”. Further, the bacterial contamination entry by setting is: (Ucarcide 250 500 ppm, sonicated 5 mins.) “−”; (Ucarcide 250 500 ppm, sonicated 10 mins.) “−”; (Ucarcide 250 500 ppm, sonicated 15 mins.) “−”; (Ucarcide 250 500 ppm, sonicated 20 mins.) “−”; (Ucarcide 250 500 ppm, sonicated 25 mins.) “−”; (Ucarcide 250 500 ppm, sonicated 30 mins.) “−”.
